Reference: ChEMBL document CHEMBL3611981, “Discovery of potent nitrotriazole-based antitrypanosomal agents: In vitro and in vivo evaluation” (Bioorg Med Chem, 2015)
Active and inactive are the calls of the source. No cut-off for these calls is given here.

Key:
[1] = Cytotoxicity against mouse peritoneal macrophages; format: cell-based; conditions: Peritoneal macrophage cell
[2] = Selectivity index, ratio of IC50 for rat L6 cells to IC50 for amastigote stage of Trypanosoma cruzi Tulahuen C4 infected in rat L6 cells
[3] = test system: Trypanosoma brucei brucei; experiment: Antiparasitic activity against wild type blood stream form of Trypanosoma brucei brucei after 3 days by Alamar blue assay; format: functional, organism-based; conditions: 72 h
Leishmania donovani [4] = experiment: Antileishmanial activity against amastigote stage of Leishmania donovani infected in mouse peritoneal macrophages assessed as reduction in parasite burden after 96 hrs by Giemsa staining method; format: functional, organism-based
Leishmania donovani [5] = experiment: Potency index, ratio of miltefosine IC50 to compound IC50 for axenic amastigote stage of Leishmania donovani MHOM-ET-67/L82; format: functional
[6] = Selectivity index, ratio of IC50 for rat L6 cells to IC50 for axenic amastigote stage of Leishmania donovani MHOM-ET-67/L82
[7] = test system: Trypanosoma brucei brucei; experiment: Ratio of IC50 for blood stream form of Trypanosoma brucei brucei overexpressing type-1 nitroreductase in absence of tetracycline to IC50 for blood stream form of Trypanosoma brucei brucei overexpressing type-1 nitroreductase in presence of tetracycline; format: functional
[8] = test system: Trypanosoma brucei brucei; experiment: Antiparasitic activity against blood stream form of Trypanosoma brucei brucei overexpressing type-1 nitroreductase after 3 days by Alamar blue assay in presence of tetracycline; format: functional, organism-based; conditions: 72 h
[9] = test system: Trypanosoma brucei brucei; experiment: Antiparasitic activity against blood stream form of Trypanosoma brucei brucei overexpressing type-1 nitroreductase after 3 days by Alamar blue assay in absence of tetracycline; format: functional, organism-based; conditions: 72 h
Trypanosoma cruzi [10] = experiment: Antichagasic activity against trypomastigote stage of Trypanosoma cruzi Brazil infected in Balb/c mouse assessed as reduction in parasite load at 13 mg/kg/day, ip measured after 5 days by luciferase reporter gene assay; format: functional, organism-based
[11] = Prodrug conversion assessed as Trypanosoma cruzi recombinant type-1 nitroreductase-mediated drug metabolism by measuring NADH oxidation after 5 mins by spectrophotometric analysis; format: ADME; conditions: isolated protein
Leishmania donovani [12] = experiment: Antiparasitic activity against axenic amastigote stage of Leishmania donovani MHOM-ET-67/L82 assessed as parasite growth inhibition after 72 hrs by Alamar blue assay; format: functional, organism-based; conditions: MHOM-ET-67/L82, 72 h
Mus musculus = experiment: Toxicity in Balb/c mouse at 13 mg/kg/day, ip; format: organism-based; conditions: in vivo
Trypanosoma cruzi [13] = experiment: Potency index, ratio of benznidazole IC50 to compound IC50 for amastigote stage of Trypanosoma cruzi Tulahuen C4 infected in rat L6 cells; format: functional
[14] = Prodrug conversion assessed as Trypanosoma brucei recombinant His-tagged type-1 nitroreductase-mediated drug metabolism by measuring NADH oxidation after 5 mins by spectrophotometric analysis; format: ADME; conditions: isolated protein
[15] = Selectivity index, ratio of IC50 for rat L6 cells to IC50 for trypomastigote stage of Trypanosoma brucei rhodesiense STIB 900
[16] = Half life in human microsomes at 1 uM in absence of NADPH
[17] = Half life in human microsomes at 1 uM in presence of NADPH
Trypanosoma cruzi [18] = experiment: Antiparasitic activity against amastigote stage of Trypanosoma cruzi Tulahuen C4 infected in rat L6 cells assessed as parasite growth inhibition after 96 hrs by beta-galactosidase reporter gene assay; format: functional, organism-based; conditions: Tulahuen C4, L6, 96 h
L6 = experiment: Cytotoxicity against rat L6 cells assessed as growth inhibition after 72 hrs by Alamar blue assay; format: cell-based; conditions: L6, 72 h
[19] = test system: Trypanosoma brucei rhodesiense; experiment: Antiparasitic activity against trypomastigote stage of Trypanosoma brucei rhodesiense STIB 900 assessed as parasite growth inhibition after 72 hrs by Alamar blue assay; format: functional, organism-based; conditions: STIB 900, 72 h
[20] = Efflux ratio of apparent permeability across basolateral to apical side over apical to basolateral side in human Caco2 cells after 2 hrs; conditions: Caco-2

| Compound | IC50 [1] | selectivity ratio [2] | IC50 (Leishmania donovani [4]) | Ratio IC50 (Leishmania donovani [5]) | selectivity ratio [6] | Ratio IC50 [7] | IC50 [8] | IC50 [9] | Drug metabolism [11] | IC50 (Leishmania donovani [12]) | Ratio IC50 (Trypanosoma cruzi [13]) | Drug metabolism [14] | selectivity ratio [15] | IC50 (Trypanosoma cruzi [18]) | IC50 (L6) | IC50 [19] | further results |
| --- | --- | --- | --- | --- | --- | --- | --- | --- | --- | --- | --- | --- | --- | --- | --- | --- | --- |
| O=C(Cn1cnc([N+](=O)[O-])n1)Nc1ccc(-c2ccc(Cl)cc2)cc1 | > 84 µM | 2800 | > 84 µM | 0.95 | 738 | 0.8 | 0.85 µM | 0.69 µM | 585 nmol/min/mg | 0.17 µM | 45 | 2492 nmol/min/mg | 140 | – | – | – | IC50 [3]: 0.69 µM; Activity (Trypanosoma cruzi [10]): Active; Activity (Mus musculus): Non-toxic |
| CCCCCCCCCCCCCCCCOP(=O)([O-])OCC[N+](C)(C)C [MILTEFOSINE] | – | – | 6.89 µM | – | – | – | – | – | – | – | – | – | – | – | – | – | – |
| COc1ccc2c(c1)[C@]13CCCC[C@@H]1[C@H](C2)N(C)CC3 [DEXTROMETHORPHAN] | – | – | – | – | – | – | – | – | – | – | – | – | – | – | – | – | half-life at 1 µM [16]: 2.57 h; half-life at 1 µM [17]: 1.54 h |
| O=C(Cn1ccnc1[N+](=O)[O-])NCc1ccccc1 [BENZNIDAZOLE] | – | – | – | – | – | – | – | – | 680 nmol/min/mg | – | – | 1540 nmol/min/mg | – | – | – | – | Activity (Trypanosoma cruzi [10]): Active; Activity (Mus musculus): Non-toxic |
| O=C(Cn1cnc([N+](=O)[O-])n1)Nc1cccc(OCc2ccccc2)c1 | – | 2420 | – | – | 20 | – | – | – | – | 3.4 µM | 17 | – | 14 | 0.028 µM | 68 µM | 4.9 µM | – |
| O=C(Cn1cnc([N+](=O)[O-])n1)Nc1ccc(Oc2ccccc2)cc1 | 89 µM | 1420 | > 30 µM | 0.6 | 339 | 1.7 | 1.37 µM | 2.34 µM | 815 nmol/min/mg | 0.27 µM | 31 | 2931 nmol/min/mg | 34 | 0.065 µM | 92 µM | 2.7 µM | IC50 [3]: 1.35 µM |
| O=C(Cn1cnc([N+](=O)[O-])n1)NC1CCN(Cc2ccccc2)CC1 | – | 14 | – | – | < 1 | – | – | – | – | 133 µM | 0.28 | – | 9.6 | 8 µM | 114 µM | 12 µM | – |
| CC(C)NCC(O)COc1ccc(CC(N)=O)cc1 (centres undefined) [ATENOLOL] | – | – | – | – | – | – | – | – | – | – | – | – | – | – | – | – | efflux ratio at 2 h [20]: 3.7 |
| O=C(Cn1cnc([N+](=O)[O-])n1)Nc1cccc(-c2ccccc2)c1 | – | – | – | – | – | – | – | – | – | – | – | – | – | – | 45 µM | – | half-life at 1 µM [16]: 1.8 h; half-life at 1 µM [17]: 1.06 h |
| O=C(Cn1ccnc1[N+](=O)[O-])Nc1ccc(Oc2ccc(F)cc2)cc1 | > 84 µM | 37 | 14 µM | 0.55 | 418 | – | – | – | – | 0.29 µM | 0.61 | – | 9 | 3.3 µM | 123 µM | 13 µM | – |
| CC(C)NCC(O)COc1cccc2ccccc12 (centres undefined) [PROPRANOLOL] | – | – | – | – | – | – | – | – | – | – | – | – | – | – | – | – | efflux ratio at 2 h [20]: 3.1 |
| O=C(Cn1cnc([N+](=O)[O-])n1)Nc1ccc(Oc2ccc(F)cc2)cc1 | 84 µM | 1950 | > 28 µM | 0.89 | 384 | 4.8 | 0.77 µM | 3.67 µM | 516 nmol/min/mg | 0.18 µM | 56 | 2702 nmol/min/mg | 35 | 0.036 µM | 70 µM | 2 µM | IC50 [3]: 3.13 µM; Activity (Trypanosoma cruzi [10]): Active; Activity (Mus musculus): Non-toxic |
| O=C(Cn1cnc([N+](=O)[O-])n1)Nc1nccc(-c2ccccc2)n1 | – | 66 | – | – | – | – | – | – | – | > 308 µM | 0.8 | – | 1.2 | 2.5 µM | 169 µM | 139 µM | – |
| CC1CS(=O)(=O)CCN1/N=C/c1ccc([N+](=O)[O-])o1 (centres undefined) [NIFURTIMOX] | – | – | – | – | – | 10.3 | 0.43 µM | 4.41 µM | – | – | – | – | – | – | – | – | – |
| O=C(Cn1cnc([N+](=O)[O-])n1)Nc1ccc(Oc2ccc(Cl)cc2)cc1 | 80 µM | 3620 | > 27 µM | 4.8 | 853 | 5 | 1.18 µM | 5.9 µM | 628 nmol/min/mg | 0.034 µM | 254 | 2699 nmol/min/mg | 22 | 0.008 µM | 29 µM | 1.3 µM | IC50 [3]: 5.09 µM; Activity (Trypanosoma cruzi [10]): Active; Activity (Mus musculus): Non-toxic |
| O=C(Cn1cnc([N+](=O)[O-])n1)Nc1ccc(Cc2ccccc2)cc1 | > 89 µM | 528 | > 30 µM | 0.12 | 31 | – | – | – | – | 1.2 µM | 34 | – | 17 | 0.068 µM | 36 µM | 2.1 µM | – |
| O=C(Cn1ccnc1[N+](=O)[O-])Nc1ccc(Oc2ccccc2)cc1 | > 89 µM | 15 | 16 µM | 0.21 | 79 | – | – | – | – | 0.79 µM | 0.48 | – | – | 4.2 µM | 62 µM | 15 µM | – |
| O=C(Cn1ccnc1[N+](=O)[O-])Nc1ccc(Oc2ccc(Cl)cc2)cc1 | > 81 µM | 49 | 15 µM | 1.2 | 937 | 3.8 | 1.71 µM | 6.48 µM | 817 nmol/min/mg | 0.14 µM | 0.78 | 3337 nmol/min/mg | 50 | 2.6 µM | 127 µM | 2.6 µM | IC50 [3]: 4.72 µM |
| O=C(Cn1cncn1)Nc1ccc(Oc2ccc(Cl)cc2)cc1 | – | 7.5 | – | – | 5 | – | – | – | – | 29 µM | – | – | – | 18 µM | 137 µM | 26 µM | – |
